Like-named read-outs stand apart in the source and are kept apart here.
Legend:
[1] = test system: subjects with relapsing remitting multiple sclerosis (RRMS); assay: Clinical trial MS-LAQ-305 (Phase III), oral laquinimod 0.6 mg/day or 1.2 mg/day vs placebo; type: in vivo, human
Experimental: A multinational, multicenter, randomized, double-blind, parallel-group, placebo-controlled study followed by an active treatment (clinical trial MS-LAQ-305) is conducted to evaluate the efficacy, safety and tolerability of two doses of oral administration of laquinimod (0.6 mg/day or 1.2 mg/day) laquinimod in subjects with relapsing remitting multiple sclerosis (RRMS). Study Duration • Screening period: up to 1 month. • Double-blind Placebo-controlled (DBPC) period (Period 1): At least 15 months, but not more than 24 months of once-daily, oral administration of either laquinimod 0.6 mg, 1.2 mg or matching oral placebo. DBPC period for all subjects is declared closed when all ongoing enrolled subjects complete at least 15 months of treatment. • Active-treatment (AT) period (Period 2): In this period (24 months), subjects who are assigned to either 0.6 mg or 1.2 mg daily oral laquinimod during the DBPC period continue with the same treatment assignment, whereas those who are assigned to placebo receive 1.2 mg daily oral laquinimod. Eligible subjects (approximately 1,800) are randomized in a 1:1:1 ratio into one of the following treatment arms: • 1. Laquinimod 0.6 mg: two capsules, one containing 0.6 mg laquinimod and the other containing matching placebo, administered orally once daily. • 2. Laquinimod 1.2 mg: two capsules containing 0.6 mg laquinimod administered orally once daily. • 3. Matching placebo: two capsules containing placebo (matching to the 0.6 mg) administered orally once daily. The study comprises of two treatment periods, Double-blind Placebo-controlled (DBPC) and Active-treatment (AT). Subjects who complete 24 months on study drug in Period 1 or complete at least 15 months on study drug when Period 1 is declared closed continue on to Period 2. The following assessments are performed at the specified time points: • 1. Vital signs are measured at each study visit. • 2. A physical examination is performed at months -1 (screening), 0 (baseline) 1, 3, 6, and every 6 months thereafter, ETD (if applicable) and until completion visit of Period 1. During Period 2, a physical examination is performed at months 0AT (baseline, completion visit of Period 1), 1AT, 3AT, 6AT and every 6 months thereafter, until completion/ETD of Period 2. • 3. The following safety clinical laboratory tests are performed: • (a) Complete blood count (CBC) with differential-at all scheduled visits during Periods 1 and 2. • (b) Serum chemistry (including electrolytes, liver enzymes, urea, creatinine, calculated Glomerular Filtration Rate (GFR)-at screening and prior to each MRI scan, glucose, total protein, albumin, direct and total bilirubin and pancreatic amylase)-at all scheduled visits during the DBPC and AT periods. Calculated Glomerular Filtration Rate (GFR) is done at screening and prior to each MRI scan in both study periods. • (c) Lipid profile (total cholesterol, HDL, LDL, triglycerides)-at baseline and every 12 months during the DBPC and AT periods. • (d) Urinalysis-at the screening visit. • (e) Serum β-hCG (human choriogonadotropin beta) in women of child-bearing potential-at each scheduled study visit during the DBPC and AT periods. • (f) Urine β-hCG test in women of child-bearing potential-at baseline (month 0) and at all scheduled visits during the DBPC and AT periods. • (g) Starting after visit Month 3, between scheduled visits, a rapid urine β-hCG test is performed in women of child-bearing potential every 28 (±2) days. The subject is contacted within 72 hours after the scheduled test is performed and asked specific questions regarding the test. In case of suspected pregnancy (positive urine β-hCG test result) the caller instructs the subject to make sure that the study drug has been discontinued and the subject arrives at the site as soon as possible (within 10 days) with all study drugs-during the DBPC and AT periods. • 4. […]

[2] = test system: MS; settings: 0.3 mg/day oral (Comi, 2007); cited from earlier work
[3] = in vivo; cited from earlier work
[4] = test system: relapsing MS; settings: cited from earlier work
[5] = test system: subjects with RRMS; assay: BRAVO Phase III clinical trial, laquinimod 0.6 mg over placebo with reference arm IFN-β-1a (Avonex®); type: in vivo, human; settings: vs placebo, 24 months
Excerpt: ALLEGRO and BRAVO are two clinical trials reported in, e.g., PCT International Application Publication No. WO/2010/147665 ([…] et al.). […] The primary endpoint was ARR. Secondary endpoints were Brain atrophy, time to EDSS progression confirmed at 3 months and MSFC z-score. […] One of the basic assumptions used to assess the sample size for the study was that treatment with laquinimod will reduce the patient population ARR by 25% or more when compared to the placebo group.

[6] = test system: subjects with RRMS; assay: ALLEGRO Phase III clinical trial, laquinimod 0.6 mg over placebo, double-blind; type: in vivo, human; settings: laquinimod 0.6 mg vs placebo, 24 months
Experimental: ALLEGRO and BRAVO are two clinical trials reported in, e.g., PCT International Application Publication No. WO/2010/147665 ([…] et al.). ALLEGRO was a study performed in subjects with RRMS to assess the efficacy, safety and tolerability of laquinimod 0.6 mg over placebo in a double-blind design. The treatment duration in this study was 24 months and it enrolled 1,106 patients equally distributed between laquinimod 0.6 mg and placebo arms. The primary endpoint was annualized relapse rate (ARR). Secondary endpoints were gadolinium-enhancing (GdE)-T1 and new-T2 lesions, time to Expanded Disability Status Scale (EDSS) progression confirmed at 3 months and multiple sclerosis functional composite (MSFC) z-score. In ALLEGRO the primary endpoint (ARR) and three key secondary endpoints were met.

[7] = daily oral 1.2 mg compared to 0.6 mg laquinimod or placebo
[8] = corrected post-hoc analysis with two baseline MRI covariates

Q: What does the source list for `CCN(C(=O)c1c(O)c2c(Cl)cccc2n(C)c1=O)c1ccccc1` [Laquinimod, laquinimod]?
A: Efficacy in treating RRMS patients with respect to all endpoints ([1]; 1.2 mg/day compared to 0.6 mg/day laquinimod): improved efficacy; Fatigue and functional status ([1]; 1.2 mg/day compared to 0.6 mg/day laquinimod or placebo): maintained or improved; Time to first confirmed relapse ([1]; daily oral 1.2 mg compared to 0.6 mg laquinimod and placebo): prolonged time to first confirmed relapse; Accumulation of disability as measured by the MSFC score or Timed 25-foot walk (T25FW) [1, 7]: reduced the accumulation of disability; Annualized relapse rate [1, 7]: lower annualized relapse relate; Brain atrophy, percent brain volume change from baseline to month 15 [1, 7]: reduced brain atrophy; Brain atrophy, percent change in brain volume from baseline to month 24 [1, 7]: reduced brain atrophy; Functional status and general health, Short-Form general health survey (SF-36) [1, 7]: improved functional status and general health; MRI-monitored disease activity (enhancing T1, new hypointense T1, new T2 lesion numbers and lesion volume changes) [1, 7]: reduced MRI-monitored disease activity; Neuroprotection [1, 7]: more effective in providing neuroprotection; Number of confirmed relapses [1, 7]: reduced number of confirmed relapses; Symbol Digit Modalities Test (SDMT) score [1, 7]: improved Symbol Digit Modalities Test (SDMT) score; Time to Confirmed Disease Progression (CDP) [1, 7]: prolonged time to CDP; MRI and clinical effect as compared to placebo [2]: neither MRI nor clinical effect; Oral bioavailability [3]: high; Development of active MRI lesions ([4]; 0.3 mg/day oral, relapsing MS (RRMS and SPMS) (Polman, 2005)): reduce development of active MRI lesions; Development of active MRI lesions ([4]; relapsing MS, dose not stated (Polman, 2005)): reduce development of active MRI lesions; ARR % reduction, Corrected [5, 8]: 21.3%; Brain Atrophy % reduction, Corrected [5, 8]: 27.4%; Cumulative number of GdE T1 lesions % reduction, Corrected [5, 8]: 21.7%; Cumulative number of new T2 lesions (exploratory endpoint) % reduction, Corrected [5, 8]: 18.7%; EDSS Progression (3 m confirmation) % reduction, Corrected [5, 8]: 33.5%; MSFC % reduction, Corrected [5, 8]: 77.1%; ARR % reduction, Corrected ([5]; corrected post-hoc analysis with two baseline MRI covariates, listed as laquinimod): 21.3%; ARR % reduction, Original ([5]; original analysis): 17.7%; Brain Atrophy % reduction, Original ([5]; original analysis): 27.6%; Cumulative number of GdE T1 lesions % reduction, Original ([5]; original analysis): 21.5%; Cumulative number of new T2 lesions (exploratory endpoint) % reduction, Original ([5]; original analysis): 16.5%; EDSS Progression (3 m confirmation) % reduction, Original ([5]; original analysis): 31.3%; MSFC % reduction, Original ([5]; original analysis): 77.7%; ARR % reduction, Original ([5]; original analysis, listed as laquinimod): 17.7%; ARR % reduction [6]: 23%; Brain Atrophy (exploratory endpoint) % reduction [6]: 32.8%; Cumulative number of GdE T1 lesions % reduction [6]: 37%; Cumulative number of new T2 lesions % reduction [6]: 30%; EDSS Progression (3 m confirmation) % reduction [6]: 36%; MSFC z-score % reduction [6]: 51%

Reference: patent US20160000775A1, “USE OF HIGH DOSE LAQUINIMOD FOR TREATING MULTIPLE SCLEROSIS” (Teva Pharmaceutical Industries, Ltd., priority 2012, published 2016)
